# Reference: ChEMBL document CHEMBL1130110 (J Med Chem, 1997)
# Legend:
# Glucagon receptor [1] = molecular target: T1, Glucagon receptor (Rattus norvegicus, UniProt P30082); test: pA2 value against Glucagon Receptor; conditions: read-out: pA2 (converted)
# Glucagon receptor [2] = molecular target: T1, Glucagon receptor; test: (§1) Binding affinity towards Glucagon receptor in rat liver plasma membranes by displacement of 125 I-labelled glucagon; type: cell membranes
# Glucagon receptor [3] = molecular target: T1, Glucagon receptor; test: Effective concentration was determined in cAMP accumulation assay using isolated hepatocytes in the presence rolipram.; type: functional, cell-based; conditions: hepatocyte
# Glucagon receptor [4] = molecular target: T1, Glucagon receptor; test: as §1; type: cell membranes, Plasma Membrane
# T1 sequence (P30082 whole entry): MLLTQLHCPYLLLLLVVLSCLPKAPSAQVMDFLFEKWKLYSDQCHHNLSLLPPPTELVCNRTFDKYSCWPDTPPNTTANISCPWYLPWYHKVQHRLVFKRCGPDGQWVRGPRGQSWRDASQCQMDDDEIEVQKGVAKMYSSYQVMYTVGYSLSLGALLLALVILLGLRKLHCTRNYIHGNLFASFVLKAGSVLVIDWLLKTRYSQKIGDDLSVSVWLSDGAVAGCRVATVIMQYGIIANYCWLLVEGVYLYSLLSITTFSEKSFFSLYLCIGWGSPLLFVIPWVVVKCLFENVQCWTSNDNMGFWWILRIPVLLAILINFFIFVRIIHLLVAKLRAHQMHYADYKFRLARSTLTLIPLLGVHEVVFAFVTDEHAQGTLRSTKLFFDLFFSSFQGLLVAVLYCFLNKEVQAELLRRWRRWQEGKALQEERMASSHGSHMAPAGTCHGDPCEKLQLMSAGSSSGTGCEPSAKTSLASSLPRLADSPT
SMILES,Kb (Glucagon receptor [1]),IC50 (Glucagon receptor [2]),EC50 (Glucagon receptor [3]),IC50 (Glucagon receptor [4])
CSCC[C@H](NC(=O)[C@H](CC(C)C)NC(=O)[C@H](Cc1c[nH]c2ccccc12)NC(=O)[C@H](CCC(N)=O)NC(=O)[C@@H](NC(=O)[C@H](Cc1ccccc1)NC(=O)[C@H](CC(=O)O)NC(=O)[C@H](CCC(N)=O)NC(=O)[C@H](C)NC(=O)[C@H](CCCNC(=N)N)NC(=O)[C@H](CCCNC(=N)N)NC(=O)[C@H](CO)NC(=O)[C@H](CC(=O)O)NC(=O)[C@H](CC(C)C)NC(=O)[C@H](Cc1ccc(O)cc1)NC(=O)[C@H](CCCCN)NC(=O)[C@H](CO)NC(=O)[C@H](Cc1ccc(O)cc1)NC(=O)[C@H](CCC(=O)O)NC(=O)[C@H](CO)NC(=O)[C@@H](NC(=O)[C@H](C)NC(=O)[C@@H](NC(=O)CNC(=O)[C@H](CCC(N)=O)NC(=O)[C@@H](N)CO)[C@@H](C)O)[C@@H](C)O)C(C)C)C(=O)N[C@@H](CC(N)=O)C(=O)N[C@H](C(N)=O)[C@@H](C)O,398 nM,–,–,126 nM
CSCC[C@H](NC(=O)[C@H](CC(C)C)NC(=O)[C@H](Cc1c[nH]c2ccccc12)NC(=O)[C@H](CCC(N)=O)NC(=O)[C@@H](NC(=O)[C@H](Cc1ccccc1)NC(=O)[C@H](CC(=O)O)NC(=O)[C@H](CCC(N)=O)NC(=O)[C@H](C)NC(=O)[C@H](CCCN=C(N)N)NC(=O)[C@H](CCCN=C(N)N)NC(=O)[C@H](CO)NC(=O)[C@H](CC(=O)O)NC(=O)[C@H](CC(C)C)NC(=O)[C@H](Cc1ccc(O)cc1)NC(=O)[C@H](CCCCN)NC(=O)[C@H](CO)NC(=O)[C@H](Cc1ccc(O)cc1)NC(=O)[C@H](CCC(=O)O)NC(=O)[C@H](CO)NC(=O)[C@@H](NC(=O)[C@@H](NC(=O)CNC(=O)[C@H](CCC(N)=O)NC(=O)[C@H](CO)NC(=O)[C@@H](N)Cc1c[nH]cn1)[C@@H](C)O)[C@@H](C)O)C(C)C)C(=O)N[C@@H](CC(N)=O)C(=O)N[C@H](C(N)=O)[C@@H](C)O,631 nM,113 nM,Not Active,–
CSCC[C@H](NC(=O)[C@H](CC(C)C)NC(=O)[C@H](Cc1c[nH]c2ccccc12)NC(=O)[C@H](CCC(N)=O)NC(=O)[C@@H](NC(=O)[C@H](Cc1ccccc1)NC(=O)[C@H](CC(=O)O)NC(=O)[C@H](CCC(N)=O)NC(=O)[C@H](C)NC(=O)[C@H](CCCN=C(N)N)NC(=O)[C@H](CCCN=C(N)N)NC(=O)[C@H](CO)NC(=O)[C@H](CC(=O)O)NC(=O)[C@H](CC(C)C)NC(=O)[C@H](Cc1ccc(O)cc1)NC(=O)[C@H](CCCCN)NC(=O)[C@H](CO)NC(=O)[C@H](Cc1ccc(O)cc1)NC(=O)[C@H](CCC(=O)O)NC(=O)[C@H](CO)NC(=O)[C@@H](NC(=O)[C@H](Cc1c[nH]c2ccccc12)NC(=O)[C@@H](NC(=O)CNC(=O)[C@H](CCC(N)=O)NC(=O)[C@@H](N)CO)[C@@H](C)O)[C@@H](C)O)C(C)C)C(=O)N[C@@H](CC(N)=O)C(=O)N[C@H](C(N)=O)[C@@H](C)O,562 nM,19 nM,Not Active,–
CSCC[C@H](NC(=O)[C@H](CC(C)C)NC(=O)[C@H](Cc1c[nH]c2ccccc12)NC(=O)[C@H](CCC(N)=O)NC(=O)[C@@H](NC(=O)[C@H](Cc1ccccc1)NC(=O)[C@H](CC(=O)O)NC(=O)[C@H](CCC(N)=O)NC(=O)[C@H](C)NC(=O)[C@H](CCCN=C(N)N)NC(=O)[C@H](CCCN=C(N)N)NC(=O)[C@H](CO)NC(=O)[C@H](CC(=O)O)NC(=O)[C@H](CC(C)C)NC(=O)[C@H](Cc1ccc(O)cc1)NC(=O)[C@H](CCCCN)NC(=O)[C@H](CO)NC(=O)[C@H](Cc1ccc(O)cc1)NC(=O)[C@H](CCC(=O)O)NC(=O)[C@H](CO)NC(=O)[C@@H](NC(=O)[C@H](Cc1ccc(O)cc1)NC(=O)[C@@H](NC(=O)CNC(=O)[C@H](CCC(N)=O)NC(=O)[C@@H](N)CO)[C@@H](C)O)[C@@H](C)O)C(C)C)C(=O)N[C@@H](CC(N)=O)C(=O)N[C@H](C(N)=O)[C@@H](C)O,631 nM,40 nM,Not Active,–

# The remaining lines, values ahead:
Kb (Glucagon receptor [1]),IC50 (Glucagon receptor [2]),EC50 (Glucagon receptor [3]),IC50 (Glucagon receptor [4]),SMILES
501 nM,512 nM,Not Active,–,CSCC[C@H](NC(=O)[C@H](CC(C)C)NC(=O)[C@H](Cc1c[nH]c2ccccc12)NC(=O)[C@H](CCC(N)=O)NC(=O)[C@@H](NC(=O)[C@H](Cc1ccccc1)NC(=O)[C@H](CC(=O)O)NC(=O)[C@H](CCC(N)=O)NC(=O)[C@H](C)NC(=O)[C@H](CCCN=C(N)N)NC(=O)[C@H](CCCN=C(N)N)NC(=O)[C@H](CO)NC(=O)[C@H](CC(=O)O)NC(=O)[C@H](CC(C)C)NC(=O)[C@H](Cc1ccc(O)cc1)NC(=O)[C@H](CCCCN)NC(=O)[C@H](CO)NC(=O)[C@H](Cc1ccc(O)cc1)NC(=O)[C@H](CC(=O)O)NC(=O)[C@H](CO)NC(=O)[C@@H](NC(=O)[C@@H](NC(=O)CNC(=O)[C@H](CCC(N)=O)NC(=O)[C@H](CO)NC(=O)[C@@H](N)Cc1c[nH]cn1)[C@@H](C)O)[C@@H](C)O)C(C)C)C(=O)N[C@@H](CC(N)=O)C(=O)N[C@H](C(N)=O)[C@@H](C)O
–,–,Not Active,–,CSCC[C@H](NC(=O)[C@H](CC(C)C)NC(=O)[C@H](Cc1c[nH]c2ccccc12)NC(=O)[C@H](CCC(N)=O)NC(=O)[C@@H](NC(=O)[C@H](Cc1ccccc1)NC(=O)[C@H](CC(=O)O)NC(=O)[C@H](CCC(N)=O)NC(=O)[C@H](C)NC(=O)[C@H](CCCN=C(N)N)NC(=O)[C@H](CCCN=C(N)N)NC(=O)[C@H](CO)NC(=O)[C@H](CC(=O)O)NC(=O)[C@H](CC(C)C)NC(=O)[C@H](Cc1ccc(O)cc1)NC(=O)[C@H](CCCCN)NC(=O)[C@H](CO)NC(=O)[C@H](Cc1ccc(O)cc1)NC(=O)[C@H](CCC(=O)O)NC(=O)[C@H](CO)NC(=O)[C@@H](NC(=O)[C@@H](NC(=O)CNC(=O)[C@H](CCC(N)=O)NC(=O)[C@@H](N)CO)[C@@H](C)O)[C@@H](C)O)C(C)C)C(=O)N[C@@H](CC(N)=O)C(=O)N[C@H](C(=O)O)[C@@H](C)O (stereo in doubt; 13)
–,–,Not Active,–,CSCC[C@H](NC(=O)[C@H](CC(C)C)NC(=O)[C@H](Cc1c[nH]c2ccccc12)NC(=O)[C@H](CCC(N)=O)NC(=O)[C@@H](NC(=O)[C@H](Cc1ccccc1)NC(=O)[C@H](CC(=O)O)NC(=O)[C@H](CCC(N)=O)NC(=O)[C@H](C)NC(=O)[C@H](CCCN=C(N)N)NC(=O)[C@H](CCCN=C(N)N)NC(=O)[C@H](CO)NC(=O)[C@H](CC(=O)O)NC(=O)[C@H](CC(C)C)NC(=O)[C@H](Cc1ccc(O)cc1)NC(=O)[C@H](CCCCN)NC(=O)[C@H](CO)NC(=O)[C@H](Cc1ccc(O)cc1)NC(=O)[C@H](CC(=O)O)NC(=O)[C@H](CO)NC(=O)[C@@H](NC(=O)[C@@H](NC(=O)CNC(=O)[C@H](CCC(N)=O)NC(=O)[C@@H](N)CO)[C@@H](C)O)[C@@H](C)O)C(C)C)C(=O)N[C@@H](CC(N)=O)C(=O)N[C@H](C(=O)O)[C@@H](C)O
–,–,Not Active,–,CSCC[C@H](NC(=O)[C@H](CC(C)C)NC(=O)[C@H](Cc1c[nH]c2ccccc12)NC(=O)[C@H](CCC(N)=O)NC(=O)[C@@H](NC(=O)[C@H](Cc1ccccc1)NC(=O)[C@H](CC(=O)O)NC(=O)[C@H](CCC(N)=O)NC(=O)[C@H](C)NC(=O)[C@H](CCCN=C(N)N)NC(=O)[C@H](CCCN=C(N)N)NC(=O)[C@H](CO)NC(=O)[C@H](CC(=O)O)NC(=O)[C@H](CC(C)C)NC(=O)[C@H](Cc1ccc(O)cc1)NC(=O)[C@H](CCCCN)NC(=O)[C@H](CO)NC(=O)[C@H](Cc1ccc(O)cc1)NC(=O)[C@H](CCC(=O)O)NC(=O)[C@H](CO)NC(=O)[C@@H](NC(=O)[C@H](CC(=O)O)NC(=O)[C@@H](NC(=O)CNC(=O)[C@H](CCC(N)=O)NC(=O)[C@@H](N)CO)[C@@H](C)O)[C@@H](C)O)C(C)C)C(=O)N[C@@H](CC(N)=O)C(=O)N[C@H](C(N)=O)[C@@H](C)O
–,–,Not Active,–,CSCC[C@H](NC(=O)[C@H](CC(C)C)NC(=O)[C@H](Cc1c[nH]c2ccccc12)NC(=O)[C@H](CCC(N)=O)NC(=O)[C@@H](NC(=O)[C@H](Cc1ccccc1)NC(=O)[C@H](CC(=O)O)NC(=O)[C@H](CCC(N)=O)NC(=O)[C@H](C)NC(=O)[C@H](CCCN=C(N)N)NC(=O)[C@H](CCCN=C(N)N)NC(=O)[C@H](CO)NC(=O)[C@H](CC(=O)O)NC(=O)[C@H](CC(C)C)NC(=O)[C@H](Cc1ccc(O)cc1)NC(=O)[C@H](CCCCN)NC(=O)[C@H](CO)NC(=O)[C@H](Cc1ccc(O)cc1)NC(=O)[C@H](CCC(=O)O)NC(=O)[C@H](CO)NC(=O)[C@@H](NC(=O)[C@H](C)NC(=O)[C@@H](NC(=O)CNC(=O)[C@H](CCC(N)=O)NC(=O)[C@@H](N)CO)[C@@H](C)O)[C@@H](C)O)C(C)C)C(=O)N[C@@H](CC(N)=O)C(=O)N[C@H](C(N)=O)[C@@H](C)O
562 nM,128 nM,Not Active,–,CSCC[C@H](NC(=O)[C@H](CC(C)C)NC(=O)[C@H](Cc1c[nH]c2ccccc12)NC(=O)[C@H](CCC(N)=O)NC(=O)[C@@H](NC(=O)[C@H](Cc1ccccc1)NC(=O)[C@H](CC(=O)O)NC(=O)[C@H](CCC(N)=O)NC(=O)[C@H](C)NC(=O)[C@H](CCCN=C(N)N)NC(=O)[C@H](CCCN=C(N)N)NC(=O)[C@H](CO)NC(=O)[C@H](CC(=O)O)NC(=O)[C@H](CC(C)C)NC(=O)[C@H](Cc1ccc(O)cc1)NC(=O)[C@H](CCCCN)NC(=O)[C@H](CO)NC(=O)[C@H](Cc1ccc(O)cc1)NC(=O)[C@H](CC(=O)O)NC(=O)[C@H](CO)NC(=O)[C@@H](NC(=O)[C@@H](NC(=O)CNC(=O)[C@H](CCC(N)=O)NC(=O)[C@@H](N)CO)[C@@H](C)O)[C@@H](C)O)C(C)C)C(=O)N[C@@H](CC(N)=O)C(=O)N[C@H](C(N)=O)[C@@H](C)O
–,–,Not Active,–,CSCC[C@H](NC(=O)[C@H](CC(C)C)NC(=O)[C@H](Cc1c[nH]c2ccccc12)NC(=O)[C@H](CCC(N)=O)NC(=O)[C@@H](NC(=O)[C@H](Cc1ccccc1)NC(=O)[C@H](CC(=O)O)NC(=O)[C@H](CCC(N)=O)NC(=O)[C@H](C)NC(=O)[C@H](CCCN=C(N)N)NC(=O)[C@H](CCCN=C(N)N)NC(=O)[C@H](CO)NC(=O)[C@H](CC(=O)O)NC(=O)[C@H](CC(C)C)NC(=O)[C@H](Cc1ccc(O)cc1)NC(=O)[C@H](CCCCN)NC(=O)[C@H](CO)NC(=O)[C@H](Cc1ccc(O)cc1)NC(=O)[C@H](CCC(=O)O)NC(=O)[C@H](CO)NC(=O)[C@@H](NC(=O)[C@@H](NC(=O)CNC(=O)[C@H](CCC(N)=O)NC(=O)[C@@H](N)CO)[C@@H](C)O)[C@@H](C)O)C(C)C)C(=O)N[C@@H](CC(N)=O)C(=O)N[C@H](C(N)=O)[C@@H](C)O
